# Patent US20190247353A1, “ACNE STRAIN-SELECTIVE ANTIBACTERIAL AGENT” (MOMOTANI JUNTENKAN CO., LTD., priority 2016, published 2019)
# System: HL110PA3 strain (RT6 strain)
# Assay: Time course of viable cell count, HL110PA3 strain
# Type: cell-based, Propionibacterium acnes
# Conditions: 15 μg/mL, pH 6.0, anaerobic 37° C., 0 to 44 hours (FIG. 1c)
# Protocol: To each strain suspension (pH 6.0, 5.0×10^5 cfu/mL) of the acne bacterium strain (HL053PA1 strain (RT4 strain), HL043PA1 strain (RT5 strain), and HL110PA3 strain (RT6 strain)) prepared in the same manner as in Example 1, pentadecanoic acid (C15:0) was added to mix together (final concentration of a fatty acid of 15 μg/mL, and final concentration of solvent DMSO of 0.5%), and each the mixture was statically cultured at 37° C. in a nitrogen atmosphere (anaerobic condition). Using a sample to which only DMSO was added at 0.5% (final concentration) as a control, it was confirmed that the influence of the solvent on the growth of each strain could be neglected.
# The viable cell count in the culture solution was measured at 0, 2, 8, 18, 30 and 44 hours after the start of culturing. A viable cell count (cfu/mL) was calculated from the number of emerged colonies after culturing part of the culture solution on a GAM broth agar plate under anaerobic conditions for 3 days (FIG. 1).
smiles,measurement,value
"CCCCCCCCCCCCCCC(=O)O [Pentadecanoic acid (C15:0), Pentadecanoic acid]","Growth of the HL110PA3 strain (RT6 strain), viable cell count time course",not suppressed
